How the values were obtained:
[1] = Solution conductivity of the dyes (current at applied voltage); assay type: physicochemical
Procedure: (§1) In the first part of the in-vitro skin penetration study, the color application included the use of dyes D&C Green no. 6, FD&C Blue no. 1, FD&C Yellow no. 6, and FD&C Red no. 40. All chemicals used were analytical grade, obtained from standard supply houses (Sigma, VWR, etc.). The dyes were dissolve in ddw and the solution conductivity was measured using a dedicated apparatus. The target conductivity was defined as a minimum of 1 mAmp/cm^3 current at 3 volts. If such conductivity was not attained, the dye concentration and/or the voltage were increased. See Table 1 for the solubility and conductivity of the dyes.

mice = conditions: cited from earlier work; for Toxicity, LD50: IP in mice
Solubility of the dyes [2] = assay type: physicochemical
Procedure: as §1, with “increased.” for “increased. See Table 1 for the solubility and conductivity of the dyes.”

Solubility of the dyes [3] = assay type: physicochemical; remark: listed apart in the source
swine skin = assay: In-vitro skin penetration, hydrogel patches on stretched skin (vertical diffusion cells without cell tops), tape stripping; assay type: in vitro ADME; conditions: for Depth of penetration (Tape strips = TS): skin cleaned with 10% lactic acid
Procedure: In the second part of the in-vitro skin penetration study, the color application included the use of a hydrogel patch and dye FD&C Red no. 40 and additional dyes, Acid Blue 1 (Blue V) and Indocyanine green, on the swine skin. All chemicals used were analytical grade, obtained from standard supply houses (Sigma, VWR, etc.). […] In these experiments, the depth of penetration was tested for the additional dyes using iontophoresis and/or electroosmosis. Additionally, extensive work was done in order to establish a shaped tattoo that is sharp and has strong color imprint. The experiments were also directed to the effect of the application duration on the tattoo life span. The following properties of the tattoo were measured to determine the effects of iontophoresis on the dyes and pigments' skin penetration: uniformity of the dyeing by observation; penetration depth by tape stripping; and water durability by washing the skin with tap water.
The experiments performed in this second part of the study are described below. Experiments 2.1-2.8 and 2.10-2.14 were conducted on in-vitro swine skin. Experiments 2.9, 2.15, and 2.16 were conducted on in-vivo human skin. FIGS. 6-14 illustrate the body decoration results from the experiments.
This experiment was conducted to determine the dye penetration depth of stretched skin, as would be the case on the subject's body area. In the vertical diffusion cells without the cell tops, the skin was stretched with the cell clamps. To increase the water content of the hydrogel in the patches, the hydrogel was soaked with ddw for 2 minutes. Excess water was then absorbed. Tissue paper heart-shaped pieces were soaked in Blue V solution (100 mg/ml in ddw). The blue heart shapes were placed on the patches' hydrogel and removed a few seconds later, leaving a blue heart-shaped imprint on the hydrogel. The hydrogel patches with the blue heart-shaped imprint were placed on the skin after the skin was cleaned with 10% lactic acid. In the active experiments, the patch wires were connected to a power supply tuned to 0.5 mAmp (0.5 mAmp/cm^2). […] The dye penetration depth was determined by tape stripping.
Blue heart-shaped tattoos were created, as described before in Experiment 6. This experiment was conducted to sharpen the tattoo by soaking the hydrogel in ddw for only few seconds.
In this experiment, the patches' hydrogel content was changed. Instead of KCl, the hydrogel contained NaCl. 100 mg/ml Blue V in ddw with 10% ethanol was used to create the blue heart-shaped imprint. The assay lasted 20 minutes and was done in duplicates. […] The penetration depth was lower with NaCl than KCl in Experiment 2.6.

human = conditions: reason for choosing the additional dyes; cited from earlier work
human skin = assay: In-vivo human skin tattoo with imprinted hydrogel patches; conditions: Exp 2.16, human study, star shape, 50 mg/ml in ddw, 0.04 mAmp, 60 min, skin cleaned with 10% lactic acid
swine ear skin = system: swine ear skin
Procedure: An in-vitro skin penetration study was conducted to determine which combination of parameters results in the maximum amount of active substance, e.g., color formulation, being delivered into the skin, i.e., the dermis and epidermis, but not through the skin, i.e., beneath the epidermis.
The in-vitro skin penetration study generally included the following test procedure. Decoration ink, as in embodiments of the present invention, was applied on a piece of swine ear skin. The swine skin was excised to full thickness (epidermis and dermis) to an approximate depth of 500-1000 μm. […]
At the end of the exposure period, the entire receptor compartment was drained and the solution reserved for subsequent analysis of the dye(s) and/or pigment(s). […] The depth of penetration was measured by noting the number of tape strippings required to remove the ink. […] The ink was determined quantitatively using customary analytical procedures (e.g., HPLC, UV-Vis spectrum, GC, radiolabeled detection, etc.), as applicable. […]
In these experiments, the enhancing effect of iontophoresis and/or electroosmosis on skin penetration of different dyes was assessed. […] The following properties were measured to determine the enhancing effect of iontophoretic induction on the dyes' skin penetration: uniformity of the dyeing by observation; and penetration depth by tape stripping. […]

[4] = reason for choosing the additional dyes; cited from earlier work
rabbit = conditions: SC in rabbit; cited from earlier work

With O=S(=O)([O-])c1ccc(N=Nc2c(O)ccc3cc(S(=O)(=O)[O-])ccc23)cc1.[Na+].[Na+] [Yellow no. 6, FD&C Yellow no. 6] as the molecule, how does the Current ([1]; 20 mg/ml in water, 3 V) read?
The Current was 1.3 mA.

What about the “Toxicity, LD50” value (mice) of the same molecule?
The value was “LD50 = 4.6 gm/kg”.

Which results are given for Cc1ccc(Nc2ccc(Nc3ccc(C)cc3)c3c2C(=O)c2ccccc2C3=O)cc1 [Green no. 6, D&C Green no. 6]?
Solubility (Solubility of the dyes [2]; 10 mg/ml in water): Insoluble; Toxicity, LD50 (mice): LD50 = 0.25 gm/kg; Solubility (Solubility of the dyes [3]; 2.5 mg/ml + 30% ethanol): Insoluble; Solubility (Solubility of the dyes [3]; 10 mg/ml + 30% ethanol): Insoluble

With CCN(CC)c1ccc(C(=C2C=CC(=[N+](CC)CC)C=C2)c2ccc(S(=O)(=O)[O-])cc2S(=O)(=O)[O-])cc1.[Na+] [Blue V, Acid Blue 1] as the molecule, how does the “Depth of penetration (Tape strips = TS)” value (swine skin; Exp 2.13, Active, Anode, hydrogel with NaCl, 100 mg/ml in ddw with 10% ethanol, current = 500 μA/cm^2, 20 min) read?
The value was “Anode - TS# 3”.

What about the “Depth of penetration (Tape strips = TS)” value (swine skin; Exp 2.13, Active, Cathode, hydrogel with NaCl, 100 mg/ml in ddw with 10% ethanol, current = 500 μA/cm^2, 20 min) of the same molecule?
The value was “Cathode - TS# >4”.

What about the “Depth of penetration (Tape strips = TS)” value (swine skin; Exp 2.13, Passive, hydrogel with NaCl, 100 mg/ml in ddw with 10% ethanol, 20 min) of the same molecule?
Its value is “TS# 3”.

What about the “Penetration depth with NaCl hydrogel compared with KCl hydrogel” value (swine skin; Exp 2.13 compared with Exp 2.6) of the same molecule?
The value was “lower”.

What about the “Depth of penetration (Tape strips = TS)” value (swine skin; Exp 2.6, Active, Anode, 100 mg/ml in ddw, stretched skin, current = 500 μA/cm^2, 30 min) of the same molecule?
Its value is “Anode - TS# 5”.

And the “Depth of penetration (Tape strips = TS)” value (swine skin; Exp 2.6, Active, Cathode, 100 mg/ml in ddw, stretched skin, current = 500 μA/cm^2, 30 min)?
The value was “Cathode - TS# >6”.

And the “Depth of penetration (Tape strips = TS)” value (swine skin; Exp 2.6, Passive, 100 mg/ml in ddw, stretched skin, 30 min)?
Its value is “TS# 4”.

What about the “Depth of penetration (Tape strips = TS)” value (swine skin; Exp 2.8, Active, Anode, 100 mg/ml in ddw, hydrogel soaked in ddw for only few seconds, current = 500 μA/cm^2) of the same molecule?
The value was “Anode - TS# 4”.

What about the “Depth of penetration (Tape strips = TS)” value (swine skin; Exp 2.8, Active, Cathode, 100 mg/ml in ddw, hydrogel soaked in ddw for only few seconds, current = 500 μA/cm^2) of the same molecule?
Its value is “Cathode - TS# >7”.

And the “Depth of penetration (Tape strips = TS)” value (swine skin; Exp 2.8, Passive, 100 mg/ml in ddw, hydrogel soaked in ddw for only few seconds)?
The value was “TS# 4”.

What about the “Toxicity (approved for human injection)” value (human) of the same molecule?
Its value is “nontoxic”.

And the “Time after which the dye completely faded (tattoo life span)” value (human skin; Active With polyester)?
Its value is “after 10 days”.

What about the “Time after which the dye completely faded (tattoo life span)” value (human skin; Active Without polyester) of the same molecule?
Its value is “after 7 days”.

And the “Effect of iontophoresis on skin penetration depth” value (swine ear skin)?
Its value is “increased”.

And the Solubility in water [4]?
The Solubility in water was “soluble in water”.

With COc1cc(S(=O)(=O)[O-])c(C)cc1N=Nc1c(O)ccc2cc(S(=O)(=O)[O-])ccc12.[Na+].[Na+] [Red no. 40, FD&C Red no. 40] as the molecule, how does the Solubility (Solubility of the dyes [2]; 10 mg/ml in water) read?
The Solubility was “Soluble”.

And the Solubility (Solubility of the dyes [2]; 20 mg/ml in water)?
Its Solubility is “Soluble”.

What about the Current ([1]; 10 mg/ml in water, 3 V) of the same molecule?
Its Current is “˜0.3 mA”.

And the Current ([1]; 10 mg/ml in water, 4.15 V)?
The Current was 1 mA.

And the Current ([1]; 20 mg/ml in water, 3 V)?
The Current was 1.1 mA.

And the “Toxicity, LD50” value (rabbit)?
The value was “LD50 > 10 gm/kg,”.

What does the source list for CCN(Cc1cccc(S(=O)(=O)[O-])c1)c1ccc(C(=C2C=CC(=[N+](CC)Cc3cccc(S(=O)(=O)[O-])c3)C=C2)c2ccccc2S(=O)(=O)[O-])cc1.[Na+].[Na+] [Blue no. 1, FD&C Blue no. 1]?
Solubility (Solubility of the dyes [2]; 2 mg/ml in water): Soluble; Solubility (Solubility of the dyes [2]; 6 mg/ml in water): Soluble; Solubility (Solubility of the dyes [2]; 10 mg/ml in water): Soluble; Solubility (Solubility of the dyes [2]; 20 mg/ml in water): Soluble; Current ([1]; 2 mg/ml in water, 3 V): None; Current ([1]; 6 mg/ml in water, 3 V): ˜0.3 mA; Current ([1]; 6 mg/ml in water, 3.92 V): 1 mA; Current ([1]; 10 mg/ml in water, 3 V): ˜0.4 mA; Current ([1]; 10 mg/ml in water, 3.69 V): 1 mA; Current ([1]; 20 mg/ml in water, 3 V): ˜0.4 mA; Current ([1]; 20 mg/ml in water, 3.69 V): 1 mA; Toxicity (mice; SC in mice): 5.5 gm/kg

For CC1(C)C(/C=C/C=C/C=C/C=C2\N(CCCCS(=O)(=O)O)c3ccc4ccccc4c3C2(C)C)=[N+](CCCCS(=O)(=O)[O-])c2ccc3ccccc3c21 [Green, Indocyanine green, reference compound], which “Toxicity (approved for human injection)” value (human) is on record?
Its value is “nontoxic”.

What about the “Effect of iontophoresis on skin penetration depth” value (swine ear skin) of the same molecule?
Its value is “not affected”.

What about the Solubility in water [4] of the same molecule?
Its Solubility in water is “soluble in water”.

From patent publication US20040267283A1, “Method, device and kit for body decoration” (priority 2003, published 2004)
